Holding throughout (experiment): NCI anticancer screen, dose series, 48 h
Assay [1] relates to 786-0 renal.
Assay [2] relates to HCC-2998 colon.
The subject of assay [3] is HCT-116 colon.
Assay [4] relates to HS 578T breast.
Assay [5] concerns M14 melanoma.
Assay [6] deals with OVCAR-3 ovarian.
Assay [7] has as its system OVCAR-5 ovarian.
The subject of assay [8] is SF-539 CNS.
In assay [9] the test system is SNB-75 CNS.
Assay [10] relates to SW-620 colon.

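A five-concentration, 48-hour dose response in 96-well plates underlies each endpoint, interpolated linearly between surrounding concentrations. Here, GI50 denotes the concentration required for 50% inhibition of growth. TGI: total growth inhibition.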

As for `NCCCCC1NC(=O)C(CC(=O)O)NC(=O)CNC(=O)C(CCCN=C(N)N)NC(=O)C(N)CSSCC(C(=O)O)NC(=O)C(CC(=O)O)NC(=O)C2CCCN2C(=O)CNC1=O` (centres undefined), the GI50 in [1] is above 100000 nM; in assay [2], above 100000 nM; in [3], above 100 µM; in assay [4] it was above 100 µM; in assay [5] it was above 100000 nM; in assay [6], above 100000 nM. For the same compound, the GI50 was above 100 µM in assay [7], above 100000 nM in assay [8], above 100000 nM in assay [9] and above 100 µM in [10]. The TGI in [1], in assay [2], in [3], in [4], in assay [5] and in assay [6] was above 100 µM in each case. Also, the TGI in assay [7], in assay [8], in [9] and in [10] was above 100 µM throughout.
With `CSc1ncc(Br)c(Sc2nc(N)nc3nc[nH]c23)n1`, the GI50 was 3820 nM in assay [1]; 2560 nM in [2]; 4.2 µM in [3]; 6.71 µM in assay [4]; 2780 nM in assay [5]; 3320 nM in assay [6]. The GI50 is 4.98 µM in assay [7], 3200 nM in assay [8], 2820 nM in assay [9] and 4.46 µM in assay [10]. Further, the TGI is above 100 µM in assay [1]; 16.2 µM in assay [2]; above 100 µM in assay [3]; above 100 µM in assay [4]; above 100 µM in assay [5]; 11.1 µM in assay [6]. In addition, the TGI in assay [7] was above 100 µM; in assay [8] it was 15 µM; in [9], 81.4 µM; in [10], 24 µM.
As for `CC(C)c1nc(N(C)S(C)(=O)=O)nc(-c2ccc(F)cc2)c1/C=C/[C@@H](O)C[C@@H](O)CC(=O)O`, the GI50 in [1] is above 100000 nM; in assay [2], above 100000 nM; in assay [3], 59.5 µM; in [4], 51.9 µM; in assay [5] it was above 100000 nM; in assay [6], above 100000 nM. Further, the GI50 in assay [7] was above 100 µM; in [8], above 100000 nM; in assay [9] it was 18500 nM; in [10], above 100 µM. In addition, the TGI in [1], in assay [2], in assay [3], in assay [4], in assay [5] and in [6] was above 100 µM each time. For the same compound, the TGI was above 100 µM in [7], above 100 µM in assay [8], above 77.5 µM in assay [9] and above 100 µM in assay [10].
For the compound `Cc1ncc(C(=O)Nc2ccc(CN3CCN(C)CC3)c(C(F)(F)F)c2)cc1C#Cc1ccc(N)nc1`, the GI50 is 733 nM in [1]; 998 nM in assay [2]; 0.213 µM in [3]; 0.17 µM in [4]; 126 nM in assay [5]; 556 nM in assay [6]. Moreover, the GI50 in [7] is 0.412 µM; in [8], 367 nM; in assay [9] it was 434 nM; in assay [10] it was 0.244 µM. The TGI in assay [1] worked out at 4.3 µM; in [2], 4.66 µM; in [3], 1.64 µM; in assay [4], 0.988 µM; in assay [5] it was 0.797 µM; in assay [6] it was 4.16 µM. Also, the TGI in [7] came to 5.3 µM; in assay [8], 1.1 µM; in assay [9], 1.1 µM; in assay [10], 1.36 µM.
Take `CCOc1ccc2c(c1)C(=O)c1c-2n(CCCBr)c(=O)c2cc([N+](=O)[O-])ccc12`: the GI50 was 13600 nM in assay [1]; 57700 nM in assay [2]; 5.98 µM in assay [3]; above 100 µM in assay [4]; 6580 nM in assay [5]; 23200 nM in assay [6]. Further, the GI50 in [7] was 59.4 µM; in [8], 5570 nM; in assay [9], 33900 nM; in [10], 4.63 µM. The TGI in [1], in assay [2], in [3], in assay [4], in [5] and in assay [6] was above 100 µM each time. Besides, the TGI was above 100 µM in assay [7], 40.9 µM in assay [8], above 100 µM in assay [9] and above 100 µM in assay [10].
Regarding `COC(=O)C12CC(NC(=O)c3csc([C@@H](C[C@H](C(C)C)N(C)C(=O)[C@@H](NC(=O)[C@H]4CCCCN4C)C4CC4)OC(C)=O)n3)(C1)C2`, the GI50 was 39.4 nM in [1]; 85.1 nM in [2]; 0.0228 µM in assay [3]; 0.0169 µM in assay [4]; 9.88 nM in [5]; 5.9 nM in assay [6]. In addition, the GI50 in assay [7] is 0.135 µM; in assay [8] it was 8.53 nM; in assay [9], 5.48 nM; in assay [10], 0.0114 µM. Besides, the TGI in assay [1] is above 16.7 µM; in [2] it was above 16.7 µM; in assay [3] it was above 16.7 µM; in assay [4], above 16.7 µM; in assay [5], above 5.28 µM; in assay [7], above 16.7 µM. Further, the values for the TGI in assay [8], in [9] and in assay [10] were 0.0613 µM, above 16.7 µM and above 16.7 µM, respectively.
On to `CCOc1ccc(/C(C=O)=C(\Cl)c2ccc(OC)cc2)cc1`, for which the TGI in assay [1], in [2], in assay [3], in [4], in assay [5] and in assay [6] was above 100 µM throughout. Moreover, the TGI in assay [7], in [8], in assay [9] and in [10] was above 100 µM each time.
For `c1cc(-c2nnc(SSc3ncnc4nc[nH]c34)o2)ccn1`, the GI50 was 986 nM in assay [1]; 3380 nM in assay [2]; 2 µM in [3]; 2.56 µM in [4]; 405 nM in [5]; 319 nM in assay [6]. Besides, the GI50 was 3.1 µM in assay [7], 1840 nM in assay [8], 672 nM in assay [9] and 3.38 µM in [10]. Also, the TGI is above 100 µM in [1]; above 100 µM in [2]; above 100 µM in assay [3]; above 100 µM in assay [4]; above 100 µM in [5]; 1.73 µM in assay [6]. Besides, the TGI in assay [7], in assay [8], in [9] and in assay [10] was above 100 µM each time.

For the origin of these results see PubChem BioAssay (NCI).
